Consider 55 molecules from patent US20160367557A1, “HE[…] ACID DERIVATIVES WHICH ARE USEFUL IN THE TREATMENT, AMELIORATION OR PREVENTION OF A VIRAL DISEASE” (Savira pharmaceuticals GmbH, priority 2012, published 2016).

The subject of series [1] is influenza A virus (IAV) A/Aichi/2/68 (H3N2). The series can be described thus: Cytopathic effect (CPE) assay. The conditions noted are these: MDCK cells, 48 hrs. Type of series: cell-based.
The subject of series [2] is MDCK cells. The series can be described thus: Cytotoxicity in uninfected cells of the CPE assay. Type of series: cell-based, canine. The conditions noted are these: at 50 μM. Here is the method:
After removal of the culture medium and one washing step with PBS, virus and compound were added together to the cells. In the wells used for cytotoxicity determination (i.e. in the absence of viral infection), no virus suspension was added. Instead, infection medium was added. Each treatment was conducted in two replicates. After incubation at 37° C., 5% CO2 for 48 hrs, each well was observed microscopically for apparent cytotoxicity, precipitate formation, or other notable abnormalities. Then, cell viability was determined using CellTiter-Glo luminescent cell viability assay (Promega). The supernatant was removed carefully and 65 μl of the reconstituted reagent were added to each well and incubated with gentle shaking for 15 min at room temperature. Then, 60 μl of the solution was transferred to an opaque plate and luminescence (RLU) was measured using Synergy HT plate reader (Biotek).
Relative cell viability values of uninfected-treated versus uninfected-untreated cells were used to evaluate cytotoxicity of the compounds. Substances with a relative viability below 80% at the tested concentration were regarded as cytotoxic and retested at lower concentrations.

Series [3] has as its target T1, influenza A virus (IAV) PA-Nter fragment (amino acids 1-209) (Influenza A virus, UniProt P31343).
T1 construct: PA-Nter fragment (amino acids 1-209); made in house
The series can be described thus: FRET endonuclease activity assay. Type of series: biochemical. The conditions noted are these: for IC50: calculated from initial reaction velocities (v0).

`O=C(O)c1cn(CCc2ccccc2)c2cc(C3CC3)nn2c1=O`: the melting point is 185 to 190 °C.

`O=C(O)c1cn(CCc2ccc(O)cc2)c2cc(C3CC3)nn2c1=O` came in with a melting point of 265 to 270 °C.

`O=C(O)c1cn(CCc2ccc(Cl)cc2)c2cc(C3CC3)nn2c1=O` showed a melting point of 220 to 225 °C.

The molecule `COc1ccc(CCn2cc(C(=O)O)c(=O)n3nc(C4CC4)cc23)cc1` registered a melting point of 145 to 150 °C.

The molecule `O=C(O)c1cn(CCc2ccc(C(F)(F)F)cc2)c2cc(C3CC3)nn2c1=O` registered a melting point of 225 to 230 °C.

`O=C(O)c1cn(CCc2cccc(F)c2)c2cc(C3CC3)nn2c1=O`: the melting point was in the range of 220 to 225 °C.

As for `O=C(O)c1cn(CCc2cccc(C(F)(F)F)c2)c2cc(C3CC3)nn2c1=O`, the melting point lay within 200 to 205 °C.

As for `O=C(O)c1cn(CCCc2ccccc2)c2cc(C3CC3)nn2c1=O`, the melting point lay in the range of 95 to 100 °C.

For the molecule `CC(C)c1cc2n(Cc3ccccc3)cc(C(=O)O)c(=O)n2n1`, the melting point lay in the range of 180 to 185 °C.

`CC(C)c1cc2n(CCc3ccccc3)cc(C(=O)O)c(=O)n2n1`: the melting point lay in the range of 220 to 225 °C.

Molecule `O=C(O)c1cn(Cc2ccccc2)c2cc(C3CCCC3)nn2c1=O` yielded a melting point of 213 to 215 °C.

For the molecule `O=C(O)Cc1c[nH]c2cc(C(F)(F)F)nn2c1=O`, the melting point lay within 320 to 324 °C.

`O=C(O)Cc1c[nH]c2cc(C3CC3)nn2c1=O` displayed a melting point above 300 °C.

`CCOC(=O)c1c[nH]c2nc(NCc3ccccc3)nn2c1=O` returned a melting point of 275 to 278 °C.

`CCOC(=O)c1c[nH]c2nc(NCc3ccc(Br)cc3)nn2c1=O` registered a melting point of 286 to 287 °C.

`CCOC(=O)c1c[nH]c2nc(NCc3cccc4ccccc34)nn2c1=O` registered a melting point of 273 to 275 °C.

In the case of `CCOC(=O)c1c[nH]c2nc(Nc3ccc(NC(C)=O)cc3)nn2c1=O`, the melting point was above 330 °C.

Molecule `CCOC(=O)c1c[nH]c2nc(Nc3ccc(C)c(Cl)c3)nn2c1=O` showed a melting point above 340 °C.

In turn, `CCOC(=O)Cc1c[nH]c2nc(Nc3ccccc3)nn2c1=O` displayed a melting point of 255 to 257 °C.

As to `CCOC(=O)Cc1c[nH]c2nc(Nc3ccc(OC(C)C)cc3)nn2c1=O`, the melting point lay within 235 to 240 °C.

Molecule `O=C(O)c1c[nH]c2cc(C(F)(F)F)nn2c1=O` returned a melting point above 340 °C.

In the case of `CCOC(=O)c1cn(Cc2ccccc2)c2cc(C3CC3)nn2c1=O`, the melting point lay in the range of 160 to 165 °C.

In the case of `CCOC(=O)c1cn(CCc2ccccc2)c2cc(C3CC3)nn2c1=O`, the melting point lay within 155 to 160 °C.

For the molecule `CCOC(=O)c1cn(CCc2ccc(O)cc2)c2cc(C3CC3)nn2c1=O`, the melting point fell in the range of 95 to 100 °C.

As to `CCOC(=O)c1cn(CCc2ccc(Cl)cc2)c2cc(C3CC3)nn2c1=O`, the melting point is 190 to 195 °C.

Take `CCOC(=O)c1cn(CCc2ccc(OC)cc2)c2cc(C3CC3)nn2c1=O`: the melting point was in the range of 160 to 165 °C.

Consider `CCOC(=O)c1cn(CCc2cccc(Cl)c2)c2cc(C3CC3)nn2c1=O`, for which the melting point was in the range of 160 to 165 °C.

`CCOC(=O)c1cn(CCc2cccc(F)c2)c2cc(C3CC3)nn2c1=O` showed a melting point of 160 to 165 °C.

Take `CCOC(=O)c1cn(CCc2cccc(C(F)(F)F)c2)c2cc(C3CC3)nn2c1=O`: the melting point lay in the range of 140 to 145 °C.

In turn, `CCOC(=O)c1cn(CCCc2ccccc2)c2cc(C3CC3)nn2c1=O` registered a melting point of 150 to 155 °C.

In turn, `CCOC(=O)c1cn(Cc2ccccc2)c2cc(C(C)C)nn2c1=O` returned a melting point of 135 to 140 °C.

Molecule `CCOC(=O)c1cn(Cc2ccccc2)c2cc(C3CCCC3)nn2c1=O` displayed a melting point of 148 to 150 °C.

As to `CCOC(=O)c1cn(CCc2ccccc2)c2cc(C3CCCC3)nn2c1=O`, the melting point fell in the range of 162 to 164 °C.

Consider `CCOC(=O)Cc1c[nH]c2cc(-c3ccccc3)nn2c1=O`, for which the melting point lay in the range of 245 to 250 °C.

In turn, `CCOC(=O)Cc1c[nH]c2cc(C(F)(F)F)nn2c1=O` showed a melting point of 290 to 293 °C.

`CCOC(=O)Cc1cn(C)c2cc(C3CC3)nn2c1=O`: the melting point was 147 to 150 °C.

`CCOC(=O)c1c[nH]c2cc(C(=O)NCCc3ccc(Cl)cc3)nn2c1=O` displayed a melting point above 300 °C.

Take `CCOC(=O)c1c[nH]c2cc(C(=O)NC3CCN(Cc4ccccc4)CC3)nn2c1=O`: the melting point was in the range of 264 to 266 °C.

`CCOC(=O)c1c[nH]c2cc(C(=O)NCc3ccccc3)nn2c1=O` showed a melting point of 290 to 292 °C.

Consider `O=C(O)c1c[nH]c2nc(NCc3ccccc3)nn2c1=O`, for which the melting point fell in the range of 240 to 245 °C.

Regarding `O=C(O)c1c[nH]c2nc(NCc3cccc4ccccc34)nn2c1=O`, the melting point fell in the range of 245 to 250 °C.

Take `CSC1=NC2C(=O)C(C(=O)O)=CN(Cc3ccccc3-c3ccccc3)C2S1` (centres unmarked): in series [1], the “CPE activity in words” value was “inactive”. The “Cytotoxicity (relative viability below 80% regarded as cytotoxic)” value in series [2] is reported as “Toxic”.

`O=C(O)c1cn(Cc2ccccc2-c2ccccc2)c2nc(NCc3ccccc3)sc2c1=O`: the “FRET activity in words” value in series [3] was “inactive”.

As to `O=C(O)c1cn(Cc2ccccc2-c2ccccc2)c2sc(NC3CCCC3)nc2c1=O`, in series [1], the “CPE activity in words” value was “inactive”. Moreover, the “Cytotoxicity (relative viability below 80% regarded as cytotoxic)” value in series [2] is on record as “toxic”.

For `O=C(O)c1cn(Cc2ccccc2-c2ccccc2)c2sc(N3CCCCC3)nc2c1=O`, the “FRET activity in words” value in series [3] was “inactive”.

On to `CNC(=O)c1cn(Cc2ccccc2-c2ccccc2)c2sc(NCc3ccccc3)nc2c1=O`, for which, in series [3], the “FRET activity in words” value was “inactive”.

For `O=C(O)c1cn(Cc2ccccc2-c2ccccc2)c2nc(NC3CCCC3)sc2c1=O`, the “FRET activity in words” value in series [3] was “inactive”.

As for `O=C(O)c1cn(Cc2ccccc2-c2ccccc2)c2sc(NS(=O)(=O)c3ccc(Cl)cc3)nc2c1=O`, the half-inhibitory concentration (IC50) in series [3] was 2.2 µM; in series [1] (Influenza A virus, H3N2), 18 µM.

For the molecule `CCOC(=O)c1cn(Cc2ccccc2-c2ccccc2)c2sc(NS(=O)(=O)c3ccc(Cl)cc3F)nc2c1=O`, the “FRET activity in words” value in series [3] is “inactive”. Also, the midpoint of inhibition in series [1] (Influenza A virus, H3N2), the IC50, lay at 39 µM.

Consider `O=CNc1nc2c(=O)c(C(=O)O)cn(Cc3ccccc3-c3ccccc3)c2s1`, for which, in series [3], the IC50 was 47 µM. In series [1], the “CPE activity in words” value is “inactive”.

On to `CCOC(=O)c1cn(Cc2ccccc2-c2ccccc2)c2sc(SC)nc2c1=S`, for which the “FRET activity in words” value in series [3] is “inactive”. Moreover, the inhibition at 50 µM in series [1] (Influenza A virus, H3N2, @ 50 μM, read-out: CPE % reduction) came to 35%.

With `Cc1[nH]c2ncnn2c(=O)c1CC(=O)O`, the “FRET activity in words” value in series [3] was “inactive”.

As to `O=C(O)c1c[nH]c2ccnn2c1=O` [drawing 208], the inhibition at 5 µM in series [3] (20 min, @ 5 μM, read-out: FRET % reduction of v0) is 26%.

With `O=C(O)c1cn(CCc2ccccc2)c2cc(C3CCCC3)nn2c1=O` [drawing 219], the “FRET % reduction of v0” value in series [3] (@ 25 μM) worked out at 26% @ 25 μM. Further, the “CPE activity in words” value in series [1] was “inactive”.

Turning to `Nc1cc2n(C(=O)C3(c4ccccc4)CCCC3)cc(C(=O)O)c(=O)n2n1` [drawing 232], in series [3], the “FRET activity in words” value was “inactive”.
